According to ChEMBL document CHEMBL1143100, “Phenylethynyl-pyrrolo[1,2-a]pyrazine: a new potent and selective tool in the mGluR5 antagonists arena” (Bioorg Med Chem Lett, 2008):
pIC50: −log10 of the molar value. In brackets after ≈: the same amount, converted by molar mass.

molecular target: Metabotropic glutamate receptor 5 (Homo sapiens, UniProt P41594); assay: Antagonist activity at human mGluR5 expressed in CHO cells assessed as increase in intracellular calcium level by FLIPR; format: functional, cell-based; settings: not given
Sequence (P41594 whole entry): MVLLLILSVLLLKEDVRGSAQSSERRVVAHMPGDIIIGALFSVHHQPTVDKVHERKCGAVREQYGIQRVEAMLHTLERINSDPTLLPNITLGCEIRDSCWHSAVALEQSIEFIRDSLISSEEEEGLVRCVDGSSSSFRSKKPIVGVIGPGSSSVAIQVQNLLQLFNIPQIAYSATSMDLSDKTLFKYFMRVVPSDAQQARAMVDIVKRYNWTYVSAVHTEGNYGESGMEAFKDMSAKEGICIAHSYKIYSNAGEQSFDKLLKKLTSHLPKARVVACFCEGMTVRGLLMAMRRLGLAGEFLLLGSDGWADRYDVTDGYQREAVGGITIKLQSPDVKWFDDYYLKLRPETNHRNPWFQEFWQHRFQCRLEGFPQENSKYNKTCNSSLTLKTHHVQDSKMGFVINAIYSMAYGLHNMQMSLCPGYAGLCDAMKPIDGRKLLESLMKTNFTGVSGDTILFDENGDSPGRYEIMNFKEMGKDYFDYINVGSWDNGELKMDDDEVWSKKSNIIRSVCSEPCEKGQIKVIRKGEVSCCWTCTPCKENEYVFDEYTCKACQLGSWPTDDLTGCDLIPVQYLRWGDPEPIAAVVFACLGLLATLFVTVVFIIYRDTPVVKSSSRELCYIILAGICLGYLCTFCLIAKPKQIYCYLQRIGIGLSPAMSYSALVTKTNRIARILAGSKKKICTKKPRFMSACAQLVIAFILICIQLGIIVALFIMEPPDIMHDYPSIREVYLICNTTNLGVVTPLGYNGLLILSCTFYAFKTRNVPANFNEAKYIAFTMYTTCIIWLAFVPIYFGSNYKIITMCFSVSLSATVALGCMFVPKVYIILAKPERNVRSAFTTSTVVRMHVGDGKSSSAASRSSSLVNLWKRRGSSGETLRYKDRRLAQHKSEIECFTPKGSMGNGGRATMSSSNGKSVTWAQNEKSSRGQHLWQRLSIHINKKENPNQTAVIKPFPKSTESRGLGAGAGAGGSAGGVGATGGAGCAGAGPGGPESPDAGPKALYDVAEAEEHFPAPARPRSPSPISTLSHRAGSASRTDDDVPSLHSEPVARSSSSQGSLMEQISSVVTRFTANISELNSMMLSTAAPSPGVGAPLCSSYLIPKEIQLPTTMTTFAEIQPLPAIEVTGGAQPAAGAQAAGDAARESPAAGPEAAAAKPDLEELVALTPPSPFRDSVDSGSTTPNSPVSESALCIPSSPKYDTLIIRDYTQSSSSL

pIC50 | Compound
< 4.90 | Cc1cn2cc(C(F)(F)F)cc2c(C#Cc2cccc(-c3c(C)noc3C)c2)n1
6.30 | Cc1cn2cc(C(F)(F)F)cc2c(C#Cc2cccnc2)n1
5.00 | Cc1cn2cc(C(F)(F)F)cc2c(C#Cc2cccc(-c3ccoc3)c2)n1
< 4.80 | Cc1cn2cc(C(F)(F)F)cc2c(C#Cc2ccc(C#N)cc2)n1
7.20 | Cc1cn2cc(C(F)(F)F)cc2c(C#Cc2cccs2)n1
< 4.80 | CCOC(=O)c1cc2c(C#Cc3ccc(C#N)cc3)nc(C)cn2c1
6.60 | Cc1cn2cc(C(=O)N3CCN(C)CC3)cc2c(C#Cc2cccc(C(F)(F)F)c2)n1
7.30 | Cc1cc2c(C#Cc3ccccc3)nc(C)cn2c1
5.30 | Cc1cn2cc(C(F)(F)F)cc2c(C#Cc2cccc(-c3ccsc3)c2)n1
7.40 | Cc1cn2cc(C(=O)N3CCCC3C)cc2c(C#Cc2ccsc2)n1 (configuration not stated)
< 4.80 | Cc1cc2c(C#Cc3ccc(C(F)(F)F)cc3)nc(C)cn2c1
7.00 | Cc1cn2cc(C(=O)N3CCCCC3C)cc2c(C#Cc2ccsc2)n1 (configuration not stated)
< 4.90 | Cc1cn2cccc2c(C#Cc2ccc(Br)cc2)n1
< 4.80 | Cc1cn2cc(C(F)(F)F)cc2c(C#Cc2ccc(F)cc2F)n1
6.70 | Cc1cn2cc(CN3CCNC(=O)C3)cc2c(C#Cc2ccccc2)n1
7.70 | Cc1cn2cc(C(=O)N3CCCC3)cc2c(C#Cc2ccsc2)n1
6.30 | Cc1cn2cc(C(N)=O)cc2c(C#Cc2ccccc2F)n1
9.40 | Cc1cccc(C#Cc2nc(C)cn3cccc23)c1
7.60 | Cc1cn2cc(C(F)(F)F)cc2c(C#Cc2cccc(Br)c2)n1
6.80 | Cc1cn2cc(C(=O)N3CCN(C)CC3)cc2c(C#Cc2ccsc2)n1
6.90 | Cc1cn2cc(C(=O)N3CCC(F)(F)C3)cc2c(C#Cc2ccsc2)n1
< 4.90 | Cc1cn2cc(C(F)(F)F)cc2c(C#Cc2cccc(C(=O)O)c2)n1
9.10 | Cc1cn2cc(C#N)cc2c(C#Cc2cccc(F)c2)n1
< 4.80 | Cc1cn2cc(C(F)(F)F)cc2c(C#Cc2ccc(C(F)(F)F)cc2)n1
5.70 | Cc1cc2c(C#Cc3cccnc3)nc(C)cn2c1
< 4.80 | Cc1cn2cc(C(F)(F)F)cc2c(C#Cc2ccc(NS(C)(=O)=O)cc2)n1

test system: not listed separately; assay: Solubility at pH 7.4; format: physicochemical; settings: buffer

solubility | Compound
70 µg/mL (≈ 362 µM) | Cc1cccc(C#Cc2ccccc2)n1
